# Where two headings read alike, the source gives them in different places.
# Experiments:
# Jily = test: MTS proliferation assay, Jily; type: cell-based; settings: 72 h incubation, read-out: MTS proliferation assay IC 50 Jily
# Procedure, shortened: (§1)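 Seed cells in complete RPMI-1640 medium and allow 24 h attachment. Add compounds to final 10 μM, 3 μM, 1 μM or 0.3 μM and incubate 72 h at 37° C. Add MTS, incubate 3 h more, then measure absorption at 492 nm.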
# HeLa = test: MTS proliferation assay, HeLa; type: cell-based, human; settings: 72 h incubation, read-out: MTS proliferation assay IC 50 HeLa
# Procedure, shortened: (§2)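 Human lines, EGFP-transfected or not, grow in RPMI-1640 plus 5% or 10% FCS and 2-mercaptoethanol. They receive test compound for 72 h at final concentrations of 10, 3, 1 and 0.3 μM, and MTS conversion is measured at 492 nm.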
# MRC5 = test: MTS proliferation assay, MRC5; type: cell-based; settings: MRC5, 72 h incubation, read-out: MTS proliferation assay IC 50 MRC5
# Procedure, shortened: as §1
# [1] = tested on: adherent cells or suspension cells; test: Hoechst 33342 nuclear staining (fraction of apoptotic nuclei); type: cell-based; design: key: 0 relating to no activity; 1 relating to weak activity comprising less than 70% of the cells; score 2 relating to strong activity comprising more than 70% of the cells
# Jurkat = test: MTS proliferation assay, Jurkat; type: cell-based, human; settings: 72 h incubation, read-out: MTS proliferation assay IC 50 Jurkat
# Procedure, shortened: as §2
# HT1080 = test: MTS proliferation assay, HT1080; type: cell-based, human; settings: HT1080, 72 h incubation, read-out: MTS proliferation assay IC 50 HT1080
# Procedure, shortened: as §2
SMILES,IC50 (Jily),IC50 (HeLa),IC50 (MRC5),"Hoechst 33342 nuclear staining score ([1]; HeLa, conc 0.01 μm)","Hoechst 33342 nuclear staining score ([1]; HeLa, conc 0.1 μm)","Hoechst 33342 nuclear staining score ([1]; HeLa, conc 1 μm)","Hoechst 33342 nuclear staining score ([1]; Jily, conc 0.01 μm)","Hoechst 33342 nuclear staining score ([1]; Jily, conc 0.1 μm)","Hoechst 33342 nuclear staining score ([1]; Jily, conc 1 μm)","Hoechst 33342 nuclear staining score ([1]; Jurkat, conc 0.01 μm)","Hoechst 33342 nuclear staining score ([1]; Jurkat, conc 0.1 μm)","Hoechst 33342 nuclear staining score ([1]; Jurkat, conc 1 μm)","Hoechst 33342 nuclear staining score ([1]; MRC5, conc 0.01 μm)","Hoechst 33342 nuclear staining score ([1]; MRC5, conc 0.1 μm)","Hoechst 33342 nuclear staining score ([1]; MRC5, conc 1 μm)","Hoechst 33342 nuclear staining score ([1]; PBLs, conc 0.01 μm)","Hoechst 33342 nuclear staining score ([1]; PBLs, conc 0.1 μm)","Hoechst 33342 nuclear staining score ([1]; PBLs, conc 1 μm)",IC50 (Jurkat),IC50 (HT1080),further results
COc1ccc(OCn2c(-c3nonc3N)nc3ccccc32)cc1 [Example 90],100 to 1000 nM,100 to 1000 nM,100 to 1000 nM,0,0,1 (1 relating to weak activity comprising less than 70% of the cells),0,0,1 (1 relating to weak activity comprising less than 70% of the cells),0,0,2 (score 2 relating to strong activity comprising more than 70% of the cells),0,0,1 (1 relating to weak activity comprising less than 70% of the cells),0,0,0,100 to 1000 nM,100 to 1000 nM,–
"CN(C)c1nonc1-c1nc2ccccc2n1CC(=O)c1ccc(Cl)cc1 [Example 4, Dimethyl-{4-[1-(4-chlorophenacyl)-1H-benzimidazol-2-yl]-furazan-3-yl}-amine]",100 to 1000 nM,–,–,0,0,2 (score 2 relating to strong activity comprising more than 70% of the cells),0,0,2 (score 2 relating to strong activity comprising more than 70% of the cells),0,0,2 (score 2 relating to strong activity comprising more than 70% of the cells),0,0,2 (score 2 relating to strong activity comprising more than 70% of the cells),0,0,0,–,–,"IC50 (HeLa; Homo sapiens): 100 to 1000 nM; IC50 (MRC5; Homo sapiens): 100 to 1000 nM; Hoechst 33342 nuclear staining score ([1]; H460, conc 0.01 μm): 0; Hoechst 33342 nuclear staining score ([1]; H460, conc 0.1 μm): 0; Hoechst 33342 nuclear staining score ([1]; H460, conc 1 μm): 1 (1 relating to weak activity comprising less than 70% of the cells); IC50 (Jurkat; Homo sapiens): 10 to 100 nM; IC50 (HT1080; Homo sapiens, HT-1080): 100 to 1000 nM"
Nc1ccc(C(=O)Cn2c(-c3nonc3N)nc3ccccc32)cc1 [Example 50],10 to 100 nM,10 to 100 nM,10 to 100 nM,0,2 (score 2 relating to strong activity comprising more than 70% of the cells),2 (score 2 relating to strong activity comprising more than 70% of the cells),2 (score 2 relating to strong activity comprising more than 70% of the cells),2 (score 2 relating to strong activity comprising more than 70% of the cells),2 (score 2 relating to strong activity comprising more than 70% of the cells),2 (score 2 relating to strong activity comprising more than 70% of the cells),2 (score 2 relating to strong activity comprising more than 70% of the cells),2 (score 2 relating to strong activity comprising more than 70% of the cells),0,2 (score 2 relating to strong activity comprising more than 70% of the cells),2 (score 2 relating to strong activity comprising more than 70% of the cells),0,0,0,10 to 100 nM,10 to 100 nM,"Hoechst 33342 nuclear staining score ([1]; H460, conc 0.01 μm): 1 (1 relating to weak activity comprising less than 70% of the cells); Hoechst 33342 nuclear staining score ([1]; H460, conc 0.1 μm): 2 (score 2 relating to strong activity comprising more than 70% of the cells); Hoechst 33342 nuclear staining score ([1]; H460, conc 1 μm): 2 (score 2 relating to strong activity comprising more than 70% of the cells)"
Nc1nonc1-c1nc2ccccc2n1COc1ccc(C=O)cc1 [Example 96],100 to 1000 nM,100 to 1000 nM,100 to 1000 nM,0,0,2 (score 2 relating to strong activity comprising more than 70% of the cells),0,0,2 (score 2 relating to strong activity comprising more than 70% of the cells),0,0,2 (score 2 relating to strong activity comprising more than 70% of the cells),0,0,0,0,0,0,100 to 1000 nM,100 to 1000 nM,"Hoechst 33342 nuclear staining score ([1]; H460, conc 0.01 μm): 0; Hoechst 33342 nuclear staining score ([1]; H460, conc 0.1 μm): 0; Hoechst 33342 nuclear staining score ([1]; H460, conc 1 μm): 1 (1 relating to weak activity comprising less than 70% of the cells)"
Cc1cc2nc(-c3nonc3N)n(CC(=O)c3ccccc3)c2cc1C [Example 108],100 to 1000 nM,100 to 1000 nM,100 to 1000 nM,0,0,0,0,0,2 (score 2 relating to strong activity comprising more than 70% of the cells),0,0,2 (score 2 relating to strong activity comprising more than 70% of the cells),0,0,0,0,0,0,100 to 1000 nM,100 to 1000 nM,"Hoechst 33342 nuclear staining score ([1]; H460, conc 0.01 μm): 0; Hoechst 33342 nuclear staining score ([1]; H460, conc 0.1 μm): 0; Hoechst 33342 nuclear staining score ([1]; H460, conc 1 μm): 1 (1 relating to weak activity comprising less than 70% of the cells)"

# Source: USRE42890E1, “Furazanobenzimidazoles” (Basilea Pharmaceutica AG, priority 2003, dated 2011)
